According to ChEMBL document CHEMBL3832761, “MMV Pathogen Box Bioactivity Data” (2017):

Key:
Trypanosoma brucei [1] = assay: AntiTrypanosoma brucei activity T. b. rhodesiense IC50 (uM); assay type: functional, organism-based
[2] = PMM CC50 (uM) Cytotoxicity; assay type: functional; settings: Macrophage
MRC5 = assay: MRC5 CC50 (uM) Cytotoxicity; assay type: functional; settings: Homo sapiens
Leishmania infantum = assay: AntiLeishmania activity L. infantum (macrophages) IC50 (uM); assay type: functional, organism-based
Trypanosoma brucei [3] = assay: AntiTrypanosoma brucei activity T. b. brucei IC50 (uM); assay type: functional, organism-based
Trypanosoma cruzi = assay: AntiTrypanosoma cruzi activity IC50 (uM); assay type: functional, organism-based
Plasmodium berghei = assay: Antimalarial activity: Liver Stage Plasmodium berghei sporozoite Luciferase assay: inhibition at 10 uM (%); assay type: functional
Plasmodium falciparum = assay: Antimalarial activity: Asexual Blood Stage Plasmodium falciparum 3D7 IC50 (uM); assay type: functional, organism-based
HepG2 = assay: Cytotoxicity data HepG2 CC20 (uM); assay type: functional

SMILES	IC50 (Trypanosoma brucei [1]) [µM]	CC50 [2] [µM]	CC50 (MRC5) [µM]	IC50 (Leishmania infantum) [µM]	IC50 (Trypanosoma brucei [3]) [µM]	IC50 (Trypanosoma cruzi) [µM]	Inhibition (Plasmodium berghei) [%]	IC50 (Plasmodium falciparum) [µM]	CC20 (HepG2) [µM]
O=C(NCc1nnc2n1CCCCC2)c1ccc(-c2ccc(F)cc2)o1	0.13	> 64	> 64	> 64	0.1	2.07	–	–	–
CO/N=C(\C(=O)OC)c1ccccc1CO/N=C(\C)c1cccc(C(F)(F)F)c1	26.2	> 64	> 64	> 64	33.6	1.94	100	0.3	–
N=C(N)Nc1ccc(-c2ccc(-c3ccc(N=C(N)N)c(Cl)c3)o2)cc1Cl	0.2	16	15.4	10.2	0.6	0.66	–	–	13.5
Cc1ccc(S(=O)(=O)Nc2ccc(CN3CCN(C(=O)c4cccc(C#N)c4)CC3)cc2)cc1	0.12	> 64	> 64	32	0.14	1.2	–	–	–
CC(=O)Nc1ccc(-c2noc(CC3CCCN(Cc4cccc(F)c4C)C3)n2)cc1 (stereo unspecified)	25.1	> 64	29.4	1.59	32.3	2.8	–	–	–
CCc1nn(C)c(C(=O)NCc2ccc(Oc3ccc(C)cc3)cc2)c1Cl [TOLFENPYRAD]	20.4	48	56	45.6	33	5.35	94	–	–
O=C(Nc1ccc2c(c1)B(O)OC2)c1ccccc1C(F)(F)F	0.23	16	> 32	1.41	0.15	0.27	–	–	0.41
CC1CCCCN1C(=O)NCCc1coc(-c2ccc(F)cc2)n1 (stereo unspecified)	0.11	> 64	> 64	> 64	0.13	0.48	–	–	–
CNC(=O)C1Cc2ccccc2N1C(=O)Cc1ccc(F)cc1 (stereo unspecified)	0.38	> 64	> 64	> 64	0.49	> 64	–	–	–
CO[C@@H](C(=O)N1Cc2[nH]nc(NC(=O)c3ccc(N4CCN(C)CC4)cc3)c2C1)c1ccccc1 [DANUSERTIB]	0.37	4	2.7	4.06	1.02	6.48	–	–	4.83
CC1COC(Cn2cncn2)(c2ccc(Oc3ccc(Cl)cc3)cc2Cl)O1 (stereo unspecified) [DIFENOCONAZOLE]	26.2	> 64	30.9	44.7	32.5	0.01	85	–	–
COc1ccc(C2=NCCN2)cc1-c1cn(-c2cccc(C3=NCCN3)c2)nn1	1.63	> 32	> 32	> 32	> 32	> 32	–	–	>80
Cc1nn2c(=O)c3c([nH]c2c1-c1ccc(Cl)cc1)CCCC3	0.14	48	> 64	44	0.49	0.71	–	–	–
c1ccc(Oc2ccc(-c3cc(C4CCOCC4)[nH]n3)cc2)cc1	3.77	> 32	22.8	> 32	7.58	16.4	–	–	10.8
Cc1nn2c(O)c3c(nc2c1-c1ccc(F)cc1)CCCC3	0.48	> 64	> 64	50.4	1.94	2.21	–	–	–
O=C(NCCc1ccn(-c2ccccc2)n1)C1CCCCC1	< 0.13	> 64	> 64	> 64	0.15	0.73	–	–	–
COc1cc(C2=NCCN2)ccc1-n1cc(-c2cccc(C3=NCCN3)c2)nn1	3.81	> 32	> 32	> 32	> 32	> 32	–	–	>80
CC1=Nc2ccc(Cl)cc2C(c2ccccc2)N1CCNC(=O)CN(C)C (stereo unspecified)	3.11	> 32	16	10.1	3.78	17.1	–	–	16.4
CCN(CC)S(=O)(=O)c1ccc(C(=O)Nc2cc(C)nn2-c2nc(C)c(C)c(=O)[nH]2)cc1	1.7	> 64	6.6	6.87	5.3	1.96	–	–	–
COc1ccc(S(=O)(=O)Nc2ccc(CN3CCN(C(=O)c4cccc(C#N)c4)CC3)cc2)cc1	0.4	> 64	> 64	52.2	0.5	2.7	–	–	–
O=C(Nc1ccc(F)c(-c2nc3cc(-c4ccccc4)cnc3[nH]2)c1)N1CCCC1	< 0.13	16	0.4	0.16	< 0.13	< 0.13	–	–	–

SMILES	IC50 (Trypanosoma brucei [1]) [µM]	CC50 [2] [µM]	CC50 (MRC5) [µM]	IC50 (Leishmania infantum) [µM]	IC50 (Trypanosoma brucei [3]) [µM]	IC50 (Trypanosoma cruzi) [µM]	Inhibition (Plasmodium berghei) [%]	IC50 (Plasmodium falciparum) [µM]	CC20 (HepG2) [µM]
c1ccc(Oc2ccc(-c3cc(N4CCNCC4)[nH]n3)cc2)cc1	0.97	4	16	4.06	0.99	4.48	–	–	6.43
COc1cc(C2=NCCN2)ccc1-c1cn(-c2cccc(C3=NCCN3)c2)nn1	3.72	> 32	> 32	> 32	> 32	25	–	–	22.9
CC(C)(C)C(O)C(Oc1ccc(-c2ccccc2)cc1)n1cncn1 (stereo unspecified) [BITERTANOL]	28	> 64	> 64	> 64	32.9	0.06	46	–	–
CCCCN(CCCC)c1c(C#N)cc(S(=O)(=O)Nc2ccccc2)cc1C#N	0.24	16	3.9	13.6	0.26	0.82	–	–	11.9
CS(=O)(=O)c1ccccc1C(=O)N(Cc1ccccc1)c1ccccc1	0.4	> 64	> 64	> 64	0.56	35.4	–	–	–
CCOC(=O)c1noc(N)c1-c1ccccc1	0.46	> 64	> 64	> 64	1.22	> 64	–	–	–
CCc1ccccc1-n1c(C)cn2c3c(=O)n(C(C(=O)OC)C(C)C)c(=O)n(C)c3nc12 (stereo unspecified)	< 0.13	> 32	> 32	> 32	< 0.13	0.99	–	–	44.3
CC1=Nc2ccc(Cl)cc2C(O)(c2ccc(C)cc2)N1CCN1CCCCC1 (stereo unspecified)	0.43	4	16	4.06	0.98	4.04	–	–	10
Cc1noc(C)c1COc1cccc(C(=O)N=c2[nH]cccc2C)c1	0.65	> 64	> 64	> 64	2.07	> 64	–	–	–
CNC(=O)c1nn(C)c2c1C(C)(C)Cc1cnc(Nc3ccc(N4CCN(C)CC4)cc3)nc1-2 [MILCICLIB]	< 0.13	1	1.1	0.85	< 0.13	1.05	–	–	<0.26
Clc1ccc(CN2CCN(C3=NCCN3)CC2)cc1Cl	30.1	> 64	> 64	> 64	31.6	6.57	–	–	–
COc1cc(C2=NCCN2)cc2cc(-c3ccc(C4=NCCN4)cc3)oc12	0.78	> 32	> 32	> 32	14.5	13.3	–	–	14.3
c1cc(C2=NCCN2)cc(-c2cc(-c3ccc(C4=NCCN4)cc3)no2)c1	3	> 32	> 32	> 32	5.63	> 32	–	–	4.51
N=C(N)c1ccc(-c2cc(-c3ccccc3)on2)cc1	1.08	4	12.2	2.54	4.06	4.04	–	–	2.64
Cc1nn(C)c(C)c1NS(=O)(=O)c1c(Cl)cc(-c2ccnc(N3CCNCC3)c2)cc1Cl	< 0.13	1	2	1.01	< 0.13	0.85	–	–	0.05
CCC(=O)Nc1ccccc1C(=O)Nc1ccccn1	1.31	> 64	> 64	> 64	2.46	> 64	–	–	–
CN1CCCN(C(c2ccccc2)c2ccc(Cl)cc2)CC1 (stereo unspecified) [HOMOCHLORCYCLIZINE]	1.94	48	31.8	36.3	4.64	9.44	–	–	–
N=C(N)Nc1ccc(-c2ccc(-c3ccc(NC(=N)N)cc3Cl)o2)c(Cl)c1	0.23	1	11.6	1.01	1.03	0.29	–	–	6.75
CO[C@@H]1CN(c2ccc(C#CC3(O)CN4CCC3CC4)c(Cc3ccccc3)n2)C[C@H]1O (stereo partly specified)	4	> 32	> 32	17.3	16.1	< 0.13	–	–	38.4
NCCN(C(=O)c1ccc(Cl)cc1Cl)c1ccc(OCc2ccc(Cl)cc2)cc1	< 0.13	1	4	0.63	< 0.13	0.62	–	–	–
COc1ccc(C2=NN(C3CCCCCC3)C(=O)C2(C)C)cc1OCCCCOc1ccc(-c2nn[nH]n2)cc1	–	–	–	–	0.79	–	–	–	–
